According to patent US10479780B2, “Aminopyrazole derivatives” (Chugai Seiyaku Kabushiki Kaisha, priority 2015, dated 2019):

What was measured:
Type in all cases: biochemical
human Src enzyme = target: T1, human Src enzyme (Homo sapiens, UniProt P12931); test: Src enzyme inhibitory activity (time-resolved fluorometry, biotinylated peptide phosphorylation); details: biotinylated peptide phosphorylation, read-out: SRC_IC50
T1 construct: purchased Carna Biosciences, Inc. 08-173
Outline: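 Compounds were tested for blocking tyrosine phosphorylation of a biotinylated peptide substrate by recombinant human Src. Phosphorylated product was quantified by time-resolved fluorometry using europium cryptate and XL665 conjugates, and IC50 was calculated against the compound-free control.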

human Yes1 enzyme = target: T2, human Yes1 enzyme (Homo sapiens, UniProt P07947); test: Yes1 enzyme inhibitory activity (time-resolved fluorometry, biotinylated peptide phosphorylation); details: biotinylated peptide phosphorylation, read-out: YES_IC50
T2 construct: made in house
T2 sequence (P07947 whole entry): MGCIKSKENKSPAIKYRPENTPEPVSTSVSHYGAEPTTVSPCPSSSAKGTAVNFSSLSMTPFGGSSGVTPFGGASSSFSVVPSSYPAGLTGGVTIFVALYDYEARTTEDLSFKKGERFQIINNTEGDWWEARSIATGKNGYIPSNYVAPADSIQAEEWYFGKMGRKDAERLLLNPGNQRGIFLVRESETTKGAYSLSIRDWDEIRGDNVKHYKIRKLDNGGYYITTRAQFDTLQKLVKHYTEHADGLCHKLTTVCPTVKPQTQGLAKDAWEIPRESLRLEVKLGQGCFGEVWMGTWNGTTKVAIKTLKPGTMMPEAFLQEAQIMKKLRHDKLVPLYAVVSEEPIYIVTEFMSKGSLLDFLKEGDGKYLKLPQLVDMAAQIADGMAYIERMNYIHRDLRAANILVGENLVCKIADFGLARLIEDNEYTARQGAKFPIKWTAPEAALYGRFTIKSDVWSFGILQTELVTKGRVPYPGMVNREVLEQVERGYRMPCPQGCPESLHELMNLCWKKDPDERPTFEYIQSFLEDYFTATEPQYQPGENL
Outline: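 Inhibition was expressed against a compound-free control to give IC50, using TR-FRET read-out (Eu-cryptate anti-pTyr antibody, streptavidin-XL665).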

human Lck enzyme = target: T3, human Lck enzyme (Homo sapiens, UniProt P06239); test: Lck enzyme inhibitory activity (time-resolved fluorometry, biotinylated peptide phosphorylation); details: biotinylated peptide phosphorylation, read-out: LCK_IC50
T3 construct: purchased Carna Biosciences, Inc. 08-170
T3 sequence (P06239 whole entry): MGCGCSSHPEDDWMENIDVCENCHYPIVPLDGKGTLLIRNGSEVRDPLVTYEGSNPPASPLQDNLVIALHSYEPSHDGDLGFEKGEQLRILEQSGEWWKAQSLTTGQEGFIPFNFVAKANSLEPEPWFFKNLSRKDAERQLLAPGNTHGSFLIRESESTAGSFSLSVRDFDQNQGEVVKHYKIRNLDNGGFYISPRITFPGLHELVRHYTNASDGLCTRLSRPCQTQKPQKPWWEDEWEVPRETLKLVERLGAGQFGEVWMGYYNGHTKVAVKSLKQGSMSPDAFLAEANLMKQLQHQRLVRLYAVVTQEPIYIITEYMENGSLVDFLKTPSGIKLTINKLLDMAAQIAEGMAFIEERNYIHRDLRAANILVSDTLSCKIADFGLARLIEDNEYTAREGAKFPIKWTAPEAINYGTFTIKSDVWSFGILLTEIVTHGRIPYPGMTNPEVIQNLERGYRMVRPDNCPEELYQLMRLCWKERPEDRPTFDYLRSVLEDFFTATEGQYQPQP
Outline: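 Readout pairs a europium cryptate-labelled anti-phosphotyrosine antibody with XL665-streptavidin, measured by time-resolved fluorescence. IC50 derived from percent inhibition against untreated controls.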

T1 sequence (P12931 whole entry): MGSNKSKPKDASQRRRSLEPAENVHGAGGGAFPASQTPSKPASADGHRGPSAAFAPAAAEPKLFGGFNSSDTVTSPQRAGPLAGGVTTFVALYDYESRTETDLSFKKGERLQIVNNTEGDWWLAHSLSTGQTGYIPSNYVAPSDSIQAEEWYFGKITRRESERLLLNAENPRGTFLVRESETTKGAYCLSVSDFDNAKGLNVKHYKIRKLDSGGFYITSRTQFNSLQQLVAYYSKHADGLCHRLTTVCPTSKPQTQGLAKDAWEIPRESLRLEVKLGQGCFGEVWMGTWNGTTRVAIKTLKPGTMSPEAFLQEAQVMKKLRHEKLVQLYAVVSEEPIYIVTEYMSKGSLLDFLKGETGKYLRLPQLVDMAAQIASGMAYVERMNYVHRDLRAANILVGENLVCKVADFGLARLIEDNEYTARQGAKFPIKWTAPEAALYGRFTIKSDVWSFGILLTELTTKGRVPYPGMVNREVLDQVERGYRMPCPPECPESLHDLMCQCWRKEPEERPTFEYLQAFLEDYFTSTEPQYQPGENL

IC50 (human Src enzyme)	IC50 (human Yes1 enzyme)	IC50 (human Lck enzyme)	Structure (SMILES)
22 nM	0.56 nM	2.9 nM	Cc1cc2cc(C(=O)c3cnn(-c4ccc(Oc5ccccc5F)cc4C)c3N)[nH]c2cc1N1C(=O)NC2(COC2)C1=O [Example 5-1-410, 7-[2-[5-amino-1-[4-(2-fluorophenoxy)-2-methylphenyl]pyrazole-4-carbonyl]-5-methyl-1H-indol-6-yl]-2-oxa-5,7-diazaspiro[3.4] octane-6,8-dione]
37 nM	0.73 nM	4.2 nM	Cc1cc(Oc2ccccc2F)ccc1-n1ncc(C(=O)c2cc3cc(F)c(N4C(=O)N[C@@H](C)C4=O)cc3[nH]2)c1N [Example 5-1-411, (5S)-3-[2-[5-amino-1-[4-(2-fluorophenoxy)-2-methylphenyl]pyrazole-4-carbonyl]-5-fluoro-1H-indol-6-yl]-5-methylimidazolidine-2,4-dione]
100 nM	3 nM	17 nM	Cc1cc(Oc2ccccc2F)ccc1-n1ncc(C(=O)c2cc3cc(F)c(N4C(=O)NC(C)(C(F)(F)F)C4=O)cc3[nH]2)c1N (stereo not drawn) [Example 5-1-412, 3-[2-[5-amino-1-[4-(2-fluorophenoxy)-2-methylphenyl]pyrazole-4-carbonyl]-5-fluoro-1H-indol-6-yl]-5-methyl-5-(trifluoromethyl) imidazolidine-2,4-dione]
90 nM	1.5 nM	17 nM	Cc1cc(Oc2ccccc2F)ncc1-n1ncc(C(=O)c2cc3cc(F)c(N4CC5(CCOCC5)NS4(=O)=O)cc3[nH]2)c1N [Example 5-1-413, [5-amino-1-[6-(2-fluorophenoxy)-4-methylpyridin-3-yl]pyrazol-4-yl]-[6-(2,2-dioxo-8-oxa-2λ6-thia-1,3-diazaspiro[4.5]decan-3-yl)-5-fluoro-1H-indol-2-yl]methanone]
330 nM	5.3 nM	110 nM	COc1cccc(S(=O)(=O)Nc2cc3[nH]c(C(=O)c4cnn(-c5ccc(Oc6ccccc6F)cc5C)c4N)cc3cc2OCC(F)F)c1 [Example 5-1-414, N-[2-[5-amino-1-[4-(2-fluorophenoxy)-2-methylphenyl]pyrazole-4-carbonyl]-5-(2,2-difluoroethoxy)-1H-indol-6-yl]-3-methoxybenzenesulfonamide]
280 nM	5.9 nM	110 nM	Cc1cc(Oc2ccccc2F)ccc1-n1ncc(C(=O)c2cc3cc(OCC(F)F)c(NS(=O)(=O)c4cc(F)cc(F)c4)cc3[nH]2)c1N [Example 5-1-415, N-[2-[5-amino-1-[4-(2-fluorophenoxy)-2-methylphenyl]pyrazole-4-carbonyl]-5-(2,2-difluoroethoxy)-1H-indol-6-yl]-3,5-difluorobenzenesulfonamide]
210 nM	3.4 nM	58 nM	Cc1cc(Oc2ccccc2F)ccc1-n1ncc(C(=O)c2cc3cc(OCC(F)F)c(NS(=O)(=O)c4cccc(C#N)c4)cc3[nH]2)c1N [Example 5-1-416, N-[2-[5-amino-1-[4-(2-fluorophenoxy)-2-methylphenyl]pyrazole-4-carbonyl]-5-(2,2-difluoroethoxy)-1H-indol-6-yl]-3-cyanobenzenesulfonamide]
240 nM	5.8 nM	130 nM	Cc1cc(Oc2ccccc2F)ccc1-n1ncc(C(=O)c2cc3cc(OCC(F)F)c(NS(=O)(=O)c4cccc(Cl)c4)cc3[nH]2)c1N [Example 5-1-417, N-[2-[5-amino-1-[4-(2-fluorophenoxy)-2-methylphenyl]pyrazole-4-carbonyl]-5-(2,2-difluoroethoxy)-1H-indol-6-yl]-3-chlorobenzenesulfonamide]
78 nM	1.4 nM	21 nM	Cc1cc(Oc2ccccc2F)ccc1-n1ncc(C(=O)c2cc3cc(OCC(F)F)c(NS(=O)(=O)c4cccnc4)cc3[nH]2)c1N [Example 5-1-418, N-[2-[5-amino-1-[4-(2-fluorophenoxy)-2-methylphenyl]pyrazole-4-carbonyl]-5-(2,2-difluoroethoxy)-1H-indol-6-yl]pyridine-3-sulfonamide]
790 nM	5.6 nM	220 nM	COc1cccc(S(=O)(=O)Nc2cc3[nH]c(C(=O)c4cnn(-c5cnc(Oc6ccccc6F)cc5C)c4N)cc3cc2OCC(F)F)c1 [Example 5-1-419, N-[2-[5-amino-1-[6-(2-fluorophenoxy)-4-methylpyridin-3-yl]pyrazole-4-carbonyl]-5-(2,2-difluoroethoxy)-1H-indol-6-yl]-3-methoxybenzenesulfonamide]
600 nM	6.3 nM	160 nM	Cc1cc(Oc2ccccc2F)ncc1-n1ncc(C(=O)c2cc3cc(OCC(F)F)c(NS(=O)(=O)c4cc(F)cc(F)c4)cc3[nH]2)c1N [Example 5-1-420, N-[2-[5-amino-1-[6-(2-fluorophenoxy)-4-methylpyridin-3-yl]pyrazole-4-carbonyl]-5-(2,2-difluoroethoxy)-1H-indol-6-yl]-3,5-difluorobenzenesulfonamide]
84 nM	1.1 nM	17 nM	Cc1cc(Oc2ccccc2F)ncc1-n1ncc(C(=O)c2cc3cc(F)c(N4CC(C)(C)NS4(=O)=O)cc3[nH]2)c1N [Example 5-1-421, [5-amino-1-[6-(2-fluorophenoxy)-4-methylpyridin-3-yl]pyrazol-4-yl]-[6-(4,4-dimethyl-1,1-dioxo-1,2,5-thiadiazolidin-2-yl)-5-fluoro-1H-indol-2-yl]methanone]
250 nM	1.7 nM	91 nM	Cc1cc(Oc2ccccc2F)ncc1-n1ncc(C(=O)c2cc3cc(OCC(F)F)c(NS(=O)(=O)c4cccc(C#N)c4)cc3[nH]2)c1N [Example 5-1-422, N-[2-[5-amino-1-[6-(2-fluoropheooxy)-4-methylpyridin-3-yl]pyrazole-4-carbonyl]-5-(2,2-difluoroethoxy)-1H-indol-6-yl]-3-cyanobenzenesulfonamide]
190 nM	4 nM	61 nM	Cc1cc(Oc2ccccc2F)ccc1-n1ncc(C(=O)c2cc3cc(OC(F)F)c(N4CC5(CCCC5)NS4(=O)=O)cc3[nH]2)c1N [Example 5-1-423, [5-amino-1-[4-(2-fluorophenoxy)-2-methylphenyl]pyrazol-4-yl]-[5-(difluoromethoxy)-6-(2,2-dioxo-2λ6-thia-1,3-diazaspiro[4.4]nonan-3-yl)-1H-indol-2-yl]methanone]
480 nM	5.6 nM	200 nM	Cc1cc(Oc2ccccc2F)ncc1-n1ncc(C(=O)c2cc3cc(OCC(F)F)c(NS(=O)(=O)c4cccc(Cl)c4)cc3[nH]2)c1N [Example 5-1-424, N-[2-[5-amino-1-[6-(2-fluorophenoxy)-4-methylpyridin-3-yl]pyrazole-4-carbonyl]-5-(2,2-difluoroethoxy)-1H-indol-6-yl]-3-chlorobenzenesulfonamide]
95 nM	1.5 nM	39 nM	Cc1cc(Oc2ccccc2F)ncc1-n1ncc(C(=O)c2cc3cc(OCC(F)F)c(NS(=O)(=O)c4cccnc4)cc3[nH]2)c1N [Example 5-1-425, N-[2-[5-amino-1-[6-(2-fluorophenoxy)-4-methylpyridin-3-yl]pyrazole-4-carbonyl]-5-(2,2-difluoroethoxy)-1H-indol-6-yl]pyridine-3-sulfonamide]
95 nM	2 nM	36 nM	Cc1cc(Oc2ccccc2F)ccc1-n1ncc(C(=O)c2cc3cc(C4CC4)c(NS(=O)(=O)CCCF)cc3[nH]2)c1N [Example 5-1-426, N-[2-[5-amino-1-[4-(2-fluorophenoxy)-2-methylphenyl]pyrazole-4-carbonyl]-5-cyclopropyl-1H-indol-6-yl]-3-fluoropropane-1-sulfonamide]
170 nM	3.8 nM	43 nM	Cc1cc(Oc2c(F)cccc2F)ncc1-n1ncc(C(=O)c2cc3cc(C4CC4)c(NS(=O)(=O)CCCF)cc3[nH]2)c1N [Example 5-1-427, N-[2-[5-amino-1-[6-(2,6-difluorophenoxy)-4-methylpyridin-3-yl]pyrazole-4-carbonyl]-5-cyclopropyl-1H-indol-6-yl]-3-fluoropropane-1-sulfonamide]
170 nM	3.1 nM	46 nM	Cc1cc(Oc2ccccc2F)ncc1-n1ncc(C(=O)c2cc3cc(C4CC4)c(NS(=O)(=O)CCCF)cc3[nH]2)c1N [Example 5-1-428, N-[2-[5-amino-1-[6-(2-fluorophenoxy)-4-methylpyridin-3-yl]pyrazole-4-carbonyl]-5-cyolopropyl-1H-indol-6-yl]-3-fluoropropane-1-sulfonamide]
190 nM	7.5 nM	25 nM	Cc1cc2cc(C(=O)c3cnn(-c4cnc(Oc5c(F)cccc5F)cc4C)c3N)[nH]c2cc1N1C(=O)NC(C)(C(F)(F)F)C1=O (stereo not drawn) [Example 5-1-429, 3-[2-[5-amino-1-[6-(2,6-difluorophenoxy)-4-methylpyridin-3-yl]pyrazole-4-carbonyl]-5-methyl-1H-indol-6-yl]-5-methyl-5-(trlfluoromethyl)imidazolidine-2,4-dione]
280 nM	8.4 nM	37 nM	Cc1cc(Oc2c(F)cccc2F)ncc1-n1ncc(C(=O)c2cc3cc(F)c(N4C(=O)N[C@@H](Cc5ccccc5)C4=O)cc3[nH]2)c1N [Example 5-1-430, (5S)-3-[2-[5-amino-1-[6-(2,6-difluorophenoxy)-4-methylpyridin-3-yl]pyrazole-4-carbonyl]-5-fluoro-1H-indol-6-yl]-5-benzylimidazolidine-2,4-dione]
